# Test results: PubChem BioAssay AID2060603 (Molecular Pharmacology Branch, DTP, NCI, 2025)
# Tested on: 422866-222-R5-J1-PDC spheroid viability
# Assay: Anticancer human tumor 422866-222-R5-J1-PDC patient-derived pancreatic adenocarcinoma cell line growth inhibition [CLK]
# Conditions: spheroids with HUVEC and MSC; for IC50: curve of first compound; for viability, T/C: stronger effect = lower value
# How it was run: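 Multi-cell-type spheroids combined patient-derived tumor cells with HUVEC endothelial cells and human mesenchymal stem cells. Paired agents were dosed in half-log steps down from about clinical Cmax, or from 10 microM where Cmax was unknown.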
# [1] = second compound 0.0316 µM, first compound 0.0316 µM
# [2] = second compound 0.0316 µM, first compound 0.1 µM
# [3] = second compound 0.0316 µM, first compound 0.316 µM
# [4] = second compound 0.0316 µM, first compound 1 µM
# [5] = second compound 0.0316 µM, first compound 3.16 µM
# [6] = second compound 0.0316 µM, first compound 10 µM
# [7] = second compound 0.1 µM, first compound 0.0316 µM
# [8] = second compound 0.1 µM, first compound 0.1 µM
# [9] = second compound 0.1 µM, first compound 0.316 µM
# [10] = second compound 0.1 µM, first compound 1 µM
# [11] = second compound 0.1 µM, first compound 3.16 µM
# [12] = second compound 0.1 µM, first compound 10 µM
# [13] = second compound 0.316 µM, first compound 0.0316 µM
# [14] = second compound 0.316 µM, first compound 0.1 µM
# [15] = second compound 0.316 µM, first compound 0.316 µM
# [16] = second compound 0.316 µM, first compound 1 µM
# [17] = second compound 0.316 µM, first compound 3.16 µM
# [18] = second compound 0.316 µM, first compound 10 µM
# [19] = second compound 1 µM, first compound 0.0316 µM
# [20] = second compound 1 µM, first compound 0.1 µM
# [21] = second compound 1 µM, first compound 0.316 µM
# [22] = second compound 1 µM, first compound 1 µM
# [23] = second compound 1 µM, first compound 3.16 µM
# [24] = second compound 1 µM, first compound 10 µM
# [25] = second compound 3.16 µM, first compound 0.0316 µM
# [26] = second compound 3.16 µM, first compound 0.1 µM
# [27] = second compound 3.16 µM, first compound 0.316 µM
# [28] = second compound 3.16 µM, first compound 1 µM
# [29] = second compound 3.16 µM, first compound 3.16 µM
# [30] = second compound 3.16 µM, first compound 10 µM
# [31] = second compound 10 µM, first compound 0.0316 µM
# [32] = second compound 10 µM, first compound 0.1 µM
# [33] = second compound 10 µM, first compound 0.316 µM
# [34] = second compound 10 µM, first compound 1 µM
# [35] = second compound 10 µM, first compound 3.16 µM
# [36] = second compound 10 µM, first compound 10 µM
# 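Further: spheroids exposed to agents for seven days before readout.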
compound,measurement,setting,value
C#Cc1c(F)ccc2cc(O)cc(-c3ncc4c(N5CC6CCC(C5)N6)nc(OCC56CCCN5CC(F)C6)nc4c3F)c12 (stereo unspecified) + CNC(=O)c1ccc(Nc2nc(OC3CCCC3)c3c(-c4ccc5nc(C)oc5c4)c[nH]c3n2)c(OC)c1,IC50,second compound 0.0316 µM,1070 nM
same,IC50,second compound 0.1 µM,735 nM
same,IC50,second compound 0.316 µM,298 nM
same,IC50,second compound 1 µM,223 nM
same,IC50,second compound 3.16 µM,181 nM
same,IC50,second compound 10 µM,202 nM
same,"viability, T/C",[1],102%
same,"viability, T/C",[2],93.5%
same,"viability, T/C",[3],70.8%
same,"viability, T/C",[4],53.7%
same,"viability, T/C",[5],32.1%
same,"viability, T/C",[6],26.1%
same,"viability, T/C",[7],81.5%
same,"viability, T/C",[8],67.9%
same,"viability, T/C",[9],61.9%
same,"viability, T/C",[10],46.3%
same,"viability, T/C",[11],33.9%
same,"viability, T/C",[12],25.6%
same,"viability, T/C",[13],71.7%
same,"viability, T/C",[14],60.8%
same,"viability, T/C",[15],47.2%
same,"viability, T/C",[16],41.6%
same,"viability, T/C",[17],33.8%
same,"viability, T/C",[18],26.8%
same,"viability, T/C",[19],58.5%
same,"viability, T/C",[20],58.7%
same,"viability, T/C",[21],45.1%
same,"viability, T/C",[22],37.3%
same,"viability, T/C",[23],28.5%
same,"viability, T/C",[24],24.6%
same,"viability, T/C",[25],62.7%
same,"viability, T/C",[26],51.9%
same,"viability, T/C",[27],49.6%
same,"viability, T/C",[28],32.8%
same,"viability, T/C",[29],39.4%
same,"viability, T/C",[30],24%
same,"viability, T/C",[31],64.9%
same,"viability, T/C",[32],50.5%
same,"viability, T/C",[33],46.4%
same,"viability, T/C",[34],42.5%
same,"viability, T/C",[35],30.5%
same,"viability, T/C",[36],21.9%
C=C(F)C(=O)N1CCN(c2nc(OCC3CCCN3C)nc3c2CCN(c2cccc4cccc(Cl)c24)C3)CC1CC#N (stereo unspecified) + CNC(=O)c1ccc(Nc2nc(OC3CCCC3)c3c(-c4ccc5nc(C)oc5c4)c[nH]c3n2)c(OC)c1,IC50,second compound 0.0316 µM,< 31.6 nM
same,IC50,second compound 0.1 µM,< 31.6 nM
same,IC50,second compound 0.316 µM,< 31.6 nM
same,IC50,second compound 1 µM,< 31.6 nM
same,IC50,second compound 3.16 µM,< 31.6 nM
same,IC50,second compound 10 µM,< 31.6 nM
same,"viability, T/C",[1],39.9%
same,"viability, T/C",[2],29.7%
same,"viability, T/C",[3],23.2%
same,"viability, T/C",[4],25.3%
same,"viability, T/C",[5],15.7%
same,"viability, T/C",[6],0.15%
same,"viability, T/C",[7],38.7%
same,"viability, T/C",[8],23.9%
same,"viability, T/C",[9],23.3%
same,"viability, T/C",[10],20.6%
same,"viability, T/C",[11],15%
same,"viability, T/C",[12],0.14%
same,"viability, T/C",[13],29.8%
same,"viability, T/C",[14],23.6%
same,"viability, T/C",[15],25.1%
same,"viability, T/C",[16],23.1%
same,"viability, T/C",[17],14.8%
same,"viability, T/C",[18],0.14%
same,"viability, T/C",[19],30.3%
same,"viability, T/C",[20],24.8%
same,"viability, T/C",[21],22.4%
same,"viability, T/C",[22],23.3%
same,"viability, T/C",[23],18.2%
same,"viability, T/C",[24],4.65%
same,"viability, T/C",[25],28.4%
same,"viability, T/C",[26],29.2%
same,"viability, T/C",[27],24.5%
same,"viability, T/C",[28],25%
same,"viability, T/C",[29],20.4%
same,"viability, T/C",[30],0.15%
same,"viability, T/C",[31],30%
same,"viability, T/C",[32],28.4%
same,"viability, T/C",[33],28.1%
same,"viability, T/C",[34],24.6%
same,"viability, T/C",[35],18.5%
same,"viability, T/C",[36],0.17%
CC(CO)NC(=O)c1cc(-c2ccc(Cl)cc2)nn(-c2cnn(C)c2)c1=O (stereo unspecified) + CNC(=O)c1ccc(Nc2nc(OC3CCCC3)c3c(-c4ccc5nc(C)oc5c4)c[nH]c3n2)c(OC)c1,IC50,second compound 0.0316 µM,> 10000 nM
same,IC50,second compound 0.1 µM,> 10000 nM
same,IC50,second compound 0.316 µM,> 10000 nM
same,IC50,second compound 1 µM,> 10000 nM
same,IC50,second compound 3.16 µM,> 10000 nM
same,IC50,second compound 10 µM,> 10000 nM
same,"viability, T/C",[1],91%
same,"viability, T/C",[2],112%
same,"viability, T/C",[3],112%
same,"viability, T/C",[4],114%
same,"viability, T/C",[5],77.2%
same,"viability, T/C",[6],81.7%
same,"viability, T/C",[7],113%
same,"viability, T/C",[8],97.3%
same,"viability, T/C",[9],109%
same,"viability, T/C",[10],98.9%
same,"viability, T/C",[11],74.9%
same,"viability, T/C",[12],78.1%
same,"viability, T/C",[13],73.2%
same,"viability, T/C",[14],73.8%
same,"viability, T/C",[15],72.6%
same,"viability, T/C",[16],73.5%
same,"viability, T/C",[17],72.2%
same,"viability, T/C",[18],66.8%
same,"viability, T/C",[19],74.8%
same,"viability, T/C",[20],64.2%
same,"viability, T/C",[21],66.2%
same,"viability, T/C",[22],55.1%
same,"viability, T/C",[23],57.5%
same,"viability, T/C",[24],61.8%
same,"viability, T/C",[25],56.3%
same,"viability, T/C",[26],60.8%
same,"viability, T/C",[27],57.2%
same,"viability, T/C",[28],61.8%
same,"viability, T/C",[29],51.5%
same,"viability, T/C",[30],50.2%
same,"viability, T/C",[31],55.6%
same,"viability, T/C",[32],63.4%
same,"viability, T/C",[33],67%
same,"viability, T/C",[34],60.4%
same,"viability, T/C",[35],60.9%
same,"viability, T/C",[36],56.4%
